Results: patent publication EP1948196B1, “USE OF TETRAORGANOSILICON COMPOUNDS” (Salama, Zoser B., priority 2005, dated 2007)
Converted amounts (≈) assume the structure as drawn. Like-named read-outs stand apart in the source and are kept apart here.

Legend:
Lymphome = experiment: Effect on lymphomas
Hepatitis-Viren = experiment: Antiviral effect; settings: in particular as vesicles holding antisense constructs
HT29 - Kolonkarzinom = experiment: MTT assay / EZ4U test, 4 days; format: cell-based; settings: Homo sapiens
Experimental: (§1) Die Silane 1, 5, 9, 10, 11, 13, 15, 16 wurden in Ethanol gelöst und in MTT Assays in einer anfänglichen Konzentration von 200 µg/ml (5 Lösungsschritte 200 - 12.5 µg/ml) verwendet. Die Platten wurde für eine Dauer.von 4 Tagen inkubiert und die Entwicklungsfähigkeit mithilfe des EZ4U Test bestimmt. Die IC50 Werte wurden ausgehend von Dosierungs-Reaktions-Linien berechnet Zelllinien: Colo 205 and HT29 - Kolonkarzinom; BxPC3 and MIAPaCa2 - Pankreaskrebs; CRO2B - karzinoid, A431 Epidermalkarzinom; normale Zellen: WI38 - humane embryonale Fibroblasten; NIH3T3 - mausartige Fibroblasten; IEC6 - mausartige Enterozyten.

[1] = system: WI38 - humane embryonale Fibroblasten; experiment: MTT assay / EZ4U test, 4 days; format: cell-based; settings: Homo sapiens
Experimental: as §1

BxPC3 - Pankreaskrebs = experiment: MTT assay / EZ4U test, 4 days; format: cell-based; settings: Homo sapiens
Experimental: as §1

MIAPaCa2 - Pankreaskrebs = experiment: MTT assay / EZ4U test, 4 days; format: cell-based; settings: Homo sapiens
Experimental: as §1

[2] = system: IEC6 - mausartige Enterozyten; experiment: MTT assay / EZ4U test, 4 days; format: cell-based; settings: Rattus norvegicus
Experimental: as §1

Colo 205 - Kolonkarzinom = experiment: MTT assay / EZ4U test, 4 days; format: cell-based; settings: Homo sapiens
Experimental: as §1

[3] = system: NIH3T3 - mausartige Fibroblasten; experiment: MTT assay / EZ4U test, 4 days; format: cell-based; settings: Mus musculus
Experimental: as §1

A431 Epidermalkarzinom = experiment: MTT assay / EZ4U test, 4 days; format: cell-based; settings: Homo sapiens
Experimental: as §1

CRO2B - karzinoid = experiment: MTT assay / EZ4U test, 4 days; format: cell-based; settings: read-out: IC50 CR02B
Experimental: as §1

[4] = system: BxPC3 (pankreatisches Adenokarzinom); experiment: MTT test, triplicate, two-fold dilutions; format: cell-based; settings: Homo sapiens
Experimental: (§2) Die Silan wurden in Ethanol aufgelöst und in Zellkulturmedien in Konzentrationen von bis zu 500 µg/ml resuspendiert. Es wurden MTT Tests in dreifacher Ausführung durchgeführt, für welche doppelte Lösungen (7 Schritte) und colo205 (Kofon-Karzinom), BxPC3 (pankreatisches Adenokarzinom) sowie T47D (Brustkrebs) benutzt wurden.

colo205 (Kofon-Karzinom) = experiment: MTT test, triplicate, two-fold dilutions; format: cell-based; settings: Homo sapiens
Experimental: as §2

T47D (Brustkrebs) = experiment: MTT test, triplicate, two-fold dilutions; format: cell-based; settings: Homo sapiens, T47D, read-out: IC50 T47D
Experimental: as §2

Normale Zellen = experiment: Mean IC50 over all normal cell lines; format: cell-based; settings: read-out: IC50 Normale Zellen (Durchschnitt ± SD)
Experimental: as §1
(§3) Mittelwerte-IC50 für alle Krebs- oder normalen Zelllinien: […]

Krebszellen = experiment: Mean IC50 over all cancer cell lines; format: cell-based; settings: read-out: IC50 Krebszellen (Durchschnitt ± SD)
Experimental: as §1, §3

[5] = system: IEC6 mausartige Enterozyten; experiment: subG1 apoptotic fraction, propidium iodide, flow cytometry; format: cell-based; settings: 50 µg/ml, 4 Tage
Experimental: (§4) Die Zellen (IEC6 mausartige Enterozyten; Panc1 Pankreaskrebszellen; Colo205 Kolonkarzinom) wurden mit 50 µg/ml Silanen inkubiert und nach 4-tägiger Aussetzung auf DNA eingefärbt (Propidiumiodid). Die SubG1 Zellteilung wurde mittels Durchflusscytometrie bestimmt.

Colo205 Kolonkarzinom = experiment: as above; format: cell-based; settings: 50 µg/ml, 4 Tage
Experimental: as §4

[6] = system: Panc1 Pankreaskrebszellen; experiment: as above; format: cell-based; settings: 50 µg/ml, 4 Tage
Experimental: as §4

[7] = system: Kälber-Aortenendothelzellinie BKEz-7; experiment: tissue or blood; format: cell-based
Text: Prüfung auf zytotoxisches Potential an Kälber-Aortenendothelzellinie BKEz-7
Als Marker für eine zytotoxische Wirkung wird bei Zellen der charakterisierten Kälber-Aortenendothelzellinie BKEz-7 die Hemmkonzentration ermittelt, bei der eine 50%-ige Hemmung der Zellproliferation erfolgt (im Vergleich zu Kontrollkulturen ohne Zusatz eines Zellinhibitors). Die resultierende Reduzierung der Zellzahl um 50% wird als IC 50 ausgedrückt. Die getesteten Silanverbindungen wurden als Suspensionen auf die Kulturen gegeben und 48 Stunden bei 37°C inkubiert. Zusätzlich erfolgten morphologische Kontrollen und Vitalitätsbestimmungen mittels dem Neutralrot-Test. Mit Ausnahme des Di(dodecanoyloxy)dimethylsilans standen alle Ergebnisse der morphologischen Untersuchungen in guter Übereinstimmung. […]

Basalzellkarzinome = experiment: Effect on basal cell carcinomas
Maus = experiment: Pharmacological observation in the mouse (central, vegetative and toxic effects, acute toxicity); format: in vivo
Text: Pharmakologische Untersuchungen an der Maus
Die Verbindungen wurden an der Maus auf zentrale, vegetative und toxische Effekte geprüft. Durch systemische Einzelbeobachtungen sind neben der akuten Toxizität (orienberende letale Dosis, oLD) zentrale und vegetative Wirkungen der Testsubstanzen, insbesondere Effekte auf die Motorik und das Reaktionsvermögen, die Haut- und Rektaltemperatur sowie auf die Pupillenmotorik erfasst worden. Die getesteten Dosierungen betrugen 5 •10^-4, 1 • 10^-3 und 5 • 10^-3 mol/kg Körpergewicht Letale Wirkungen konnten bei keiner der Verbindungen beobachtet werden. Die oLD lag für Di(tetradecanoyloxy)dimethylsilan und Di(octadecanoyloxy)dimethylsilan unter 1 • 10^-3 mol/kg Körpergewicht für alle übrigen Verbindungen unter 5 • 10^-3 mollkg Körpergewicht.

[8] = COLO 205, read-out: IC50 Colo205

## C[C@H](N)C(=O)N[C@@H](C)C(=O)N[C@@H](C)C(=O)N[C@@H](C)C(=O)N[C@@H](C)C(=O)O[Si](OC(=O)[C@H](C)NC(=O)[C@H](C)NC(=O)[C@H](C)NC(=O)[C@H](C)NC(=O)[C@H](C)N)(c1ccccc1)c1ccccc1 [Diphenyl bis(pentaalanyl)silylester]
Lymphome
  Wirkung auf Lymphome: zeigen eine Wirkung
Hepatitis-Viren
  Wirkung gegen Hepatitis-Viren: zeigen eine Wirkung

## CCCCCCCCCCCCCCCCC(=O)O[Si](CC)(CC)OC(=O)CCCCCCCCCCCCCCCC [Si1, Di (heptadecanoyloxy) diethylsilan]
HT29 - Kolonkarzinom; HT-29, read-out: IC50 HT29
  IC50: 41.5 µg/mL (≈ 66.4 µM)
[1]; WI-38, read-out: IC50 WI38
  IC50: 26.2 µg/mL (≈ 41.9 µM)
BxPC3 - Pankreaskrebs; BXPC-3, read-out: IC50 BxPC3
  IC50: 37 µg/mL (≈ 59.2 µM)
MIAPaCa2 - Pankreaskrebs; MIA PaCa-2, read-out: IC50 MlAPaCa2
  IC50: 50 µg/mL (≈ 80 µM)
[2]; IEC-6, read-out: IC50 IEC6
  IC50: 28.1 µg/mL (≈ 45 µM)
Colo 205 - Kolonkarzinom; [8]
  IC50: 37 µg/mL (≈ 59.2 µM)
[3]; NIH3T3, read-out: IC50 NIH3T3
  IC50: 36.2 µg/mL (≈ 57.9 µM)
A431 Epidermalkarzinom; A-431, read-out: IC50 A431
  IC50: 31.8 µg/mL (≈ 50.9 µM)
CRO2B - karzinoid
  IC50: 22.8 µg/mL (≈ 36.5 µM)
[4]; BXPC-3, read-out: IC50 BxPC3
  IC50: 15 µg/mL (≈ 24 µM)
colo205 (Kofon-Karzinom); [8]
  IC50: 125 µg/mL (≈ 200 µM)
T47D (Brustkrebs)
  IC50: 15 µg/mL (≈ 24 µM)
Normale Zellen
  IC50: 30.1 µg/mL (≈ 48.2 µM)
Krebszellen
  IC50: 33.2 µg/mL (≈ 53.1 µM)
[5]
  subG1 apoptotische Zellteilung IEC6: 6,55 ± 0,49
Colo205 Kolonkarzinom
  subG1 apoptotische Zellteilung Colo205: 3.0 ± 0,14
[6]
  subG1 apoptotische Zellteilung Panc1: 57,7 ± 0,07

## CCCCCCCCCCCCCC(=O)O[Si](OC(=O)CCCCCCCCCCCCC)(c1ccccc1)c1ccccc1 [Si15, Di (tetradecanoyloxy) diphenylsilan]
HT29 - Kolonkarzinom; HT-29, 200 - 12.5 µg/ml, 4 Tage, read-out: IC50 HT29
  IC50: 39.4 µg/mL (≈ 61.8 µM)
[1]; WI-38, 200 - 12.5 µg/ml, 4 Tage, read-out: IC50 WI38
  IC50: 35 µg/mL (≈ 54.9 µM)
BxPC3 - Pankreaskrebs; BXPC-3, 200 - 12.5 µg/ml, 4 Tage, read-out: IC50 BxPC3
  IC50: 33.8 µg/mL (≈ 53.1 µM)
MIAPaCa2 - Pankreaskrebs; MIA PaCa-2, 200 - 12.5 µg/ml, 4 Tage, read-out: IC50 MlAPaCa2
  IC50: 37 µg/mL (≈ 58.1 µM)
[2]; IEC-6, 200 - 12.5 µg/ml, 4 Tage, read-out: IC50 IEC6
  IC50: 19.1 µg/mL (≈ 30 µM)
Colo 205 - Kolonkarzinom; COLO 205, 200 - 12.5 µg/ml, 4 Tage, read-out: IC50 Colo205
  IC50: 30 µg/mL (≈ 47.1 µM)
[3]; NIH3T3, 200 - 12.5 µg/ml, 4 Tage, read-out: IC50 NIH3T3
  IC50: 29.4 µg/mL (≈ 46.2 µM)
A431 Epidermalkarzinom; A-431, 200 - 12.5 µg/ml, 4 Tage, read-out: IC50 A431
  IC50: 34.5 µg/mL (≈ 54.2 µM)
CRO2B - karzinoid; 200 - 12.5 µg/ml, 4 Tage
  IC50: 12.5 µg/mL (≈ 19.6 µM)
[7]
  Bedenkliche Toxizität: -
[7]; suspensions, 48 Stunden bei 37°C
  IC50: 46 µM
[4]; BXPC-3, up to 500 µg/ml, read-out: IC50 BxPC3
  IC50: 15 µg/mL (≈ 23.5 µM)
colo205 (Kofon-Karzinom); COLO 205, up to 500 µg/ml, read-out: IC50 Colo205
  IC50: 62 µg/mL (≈ 97.3 µM)
T47D (Brustkrebs); up to 500 µg/ml
  IC50: 15 µg/mL (≈ 23.5 µM)
Basalzellkarzinome
  Wirkung auf Basalzellkarzinome: zeigen eine Wirkung
Normale Zellen; mean over normal cell lines
  IC50: 27.8 µg/mL (≈ 43.6 µM)
Maus; 1•10^-3 mol/kg
  zentrale, vegetative und toxische Effekte (Verhaltensänderungen): Ataxie, Hyper-aktivität
Maus; 5•10^-3 mol/kg
  zentrale, vegetative und toxische Effekte (Verhaltensänderungen): schwache Ataxie, Piloerektion
Maus; 5•10^-4 mol/kg
  zentrale, vegetative und toxische Effekte (Verhaltensänderungen): keine Verhaltensänderungen
Krebszellen; mean over cancer cell lines
  IC50: 30 µg/mL (≈ 47.1 µM)
[5]
  subG1 apoptotische Zellteilung IEC6: 2,9 ± 0,42
Colo205 Kolonkarzinom
  subG1 apoptotische Zellteilung Colo205: 37,6 ± 0,21
[6]
  subG1 apoptotische Zellteilung Panc1: 48,6 ± 0,6
